Assay results from paper PMC12589998, “Development and validation of a UHPLC-QqQ-MS/MS method for simultaneous determination of fifteen major components from Oroxyli seed extract in rat plasma and its application in the pharmacokinetic study” (Frontiers in Pharmacology, 2025).

Key:
[1] = Pharmacokinetic study in rats after oral administration of OS extract (UHPLC-QqQ-MS/MS of plasma); format: in vivo, rat; settings: male; for concentration at 0.5 h: SD, 3 g/kg, rat plasma collected 0.5 h after oral administration of the OS extract, read-out: Concentration printed in MRM chromatogram of plasma sample (Figure 2C); for AUC(0-t) / AUC(0-inf) / Cmax / half-life / Tmax: rat plasma, oral 3 g/kg OS extract, n = 6, mean ± SD; for AUC(0-t): read-out: AUC(0-t); for AUC(0-inf): read-out: AUC(0-∞); for Cmax: read-out: Cmax; for half-life: read-out: T1/2 (converted); for Tmax: read-out: Tmax
Description: The UHPLC-QqQ-MS/MS system consisted of a 1290 UHPLC and a 6470 mass spectrometer (Agilent Technologies). Chromatographic separation was realized on utilizing an ACQUITY UPLC BEH C18 column (2.1 × 100 mm, 1.7 μm) maintained at 35 °C. The mobile phase consisting of 0.1% formic acid in water (A) and acetonitrile (B) was utilized with the elution program set at 0 min–1 min, 5% B–30% B; 1 min–4 min, 30% B– 50% B; 4 min–8 min, and 50% B–90% B. The injection volume was 5 μL, and the flow rate was 0.3 mL/min. The mass spectrometry parameters in the negative ion mode, gas temperature, flow rate, and nebulizer pressure were 300 °C, 7 L/min, and 35 psi, respectively. The mass spectra properties of the 15 analytes and the IS are illustrated in Table 1.
To 100 μL of the plasma sample, 20 μL of methanol, 20 μL of IS solution (methylparaben, 1 μg/mL), and 5 μL of formic acid were added and vortexed for a duration of 2 min. Subsequently, the mixture underwent extraction with 800 μL of acetonitrile for 3 min. Following 10 min of centrifugation at 12,000 g, the supernatant was collected and evaporated to dryness under N2 to obtain the residue. Finally, the residue was reconstituted in 50% methanol (100 μL) and utilized for analysis.
Before initiating the study, six male SD rats underwent a 12-h fasting period, during which they were granted unrestricted access to water. Then, the rats were administered an oral dose of 3 g/kg of the OS extract, which had been dissolved in 0.5% CMC-Na aqueous solution. Blood samples, approximately 200 μL each, were collected at various time points: before administration and at 0.03, 0.08, 0.17, 0.25, 0.5, 0.75, 1, 2, 4, 6, 8, 10, 12, 24, 36, and 48 h post-administration. Following 10 min of centrifugation at 6,000 g, the resultant samples were stored at −80 °C.
The developed method was effectively applied to study the pharmacokinetics in rats following oral administration of the OS extract. […] This was likely due to their low concentrations in the OS extract. Ultimately, nine components (chrysin, chrysin-7-O-β-D-glucuronide, baicalin, baicalein, oroxin A, oroxin B, oroxylin A, oroxylin A-7-O-β-D-glucuronide, and scutellarein) were successfully fitted with pharmacokinetic parameters. The average plasma concentration–time profiles of these substances are depicted in Figure 3. […] All data were presented as the mean ± standard deviation (Mean ± SD).

[2] = Stability of the analytes in rat plasma samples under storage conditions; format: physicochemical; settings: n = 6
Description: The bioanalytical method validation was evaluated for specificity, linearity, sensitivity, precision and accuracy, recovery, matrix effect, and stability to ensure compliance with the U.S. Food and Drug Administration (FDA) guidance on precise quantitative analysis ([Center for Drug Evaluation and Research of the U.S., 2018]). The assessment of specificity was conducted by comparing the chromatograms obtained from blank plasma, blank plasma spiked with the target components, and samples gathered following the oral administration of OS extract. Calibration curves were constructed by plotting the ratio for the peak area of the analyte to IS versus the concentration, with 1/x^2 serving as the weighting factor. The lower limit of quantification (LLOQ) was defined as the concentration at which a signal to noise ratio of […] 10 was achievable. The evaluation of precision and accuracy involved the analysis of six QC samples, both within a single day and over 3 consecutive days. Accuracy was expressed as the relative error (RE), whereas precision was gauged via relative standard deviation (RSD). Extraction recovery was ascertained by juxtaposing the responses of analytes in extracted samples against those in samples that were spiked post-extraction. The matrix effect was scrutinized by determining the ratio of the responses of the analytes in post-extraction spiked samples to those in the mixed standard solution. The stability of the analytes in plasma samples was explored under diverse conditions: encompassing a 12-h period in an autosampler, a 4-h interval at room temperature, three cycles of freezing–thawing, and a 7-day duration at −80 °C.
The retention times of the analyte peaks were consistent with those in the spiked samples. […] The LLOQs for chrysin, chrysin-7-O-β-D-glucuronide, hispidulin, wogonoside, quercetin, quercetin-7-O-β-D-glucoside, baicalin, baicalein, acacetin, oroxin A, oroxin B, oroxylin A, oroxylin A-7-O-β-D-glucuronide, apigenin, and scutellarein were 1.0, 2.0, 1.0, 0.3, 1.0, 0.1, 9.0, 6.0, 0.3, 6.0, 4.0, 1.0, 2.0, 0.5, and 0.3 ng/mL, respectively. In Supplementary Table S2, the RE for accuracy is between −13.77% and 12.55%, and the RSD for precision is below 14.55% (both intra- and inter-day). […] The matrix effect varied from 60.15% to 115.53%, with RSD values below 10.54%. In Supplementary Table S4, the RSD values for stability of the analytes are found to be lower than 13.98%, meaning that these components were stable under the following conditions: encompassing a 12-h period in an autosampler, a 4-h interval at room temperature, three cycles of freezing and thawing, and a 7-day duration at −80 °C.

[3] = spiked concentration 6400 ng/mL

| concentration at 0.5 h [1] [ng/mL] | AUC(0-t) [1] [ng·h/mL] | AUC(0-inf) [1] [ng·h/mL] | Cmax [1] [ng/mL] | half-life [1] [h] | Tmax [1] [h] | Measured, -80°C for 7 days ([2]; spiked concentration 40 ng/mL) [ng/mL] | Measured, Autosampler for 12 h ([2]; spiked concentration 40 ng/mL) [ng/mL] | Measured, Room temperature for 4 h ([2]; spiked concentration 40 ng/mL) [ng/mL] | Measured, Three freeze-thaw cycles ([2]; spiked concentration 40 ng/mL) [ng/mL] | Measured, -80°C for 7 days ([2]; spiked concentration 400 ng/mL) [ng/mL] | Measured, Autosampler for 12 h ([2]; spiked concentration 400 ng/mL) [ng/mL] | Measured, Room temperature for 4 h ([2]; spiked concentration 400 ng/mL) [ng/mL] | Measured, Three freeze-thaw cycles ([2]; spiked concentration 400 ng/mL) [ng/mL] | Measured, -80°C for 7 days [2, 3] [ng/mL] | Measured, Autosampler for 12 h [2, 3] [ng/mL] | Measured, Room temperature for 4 h [2, 3] [ng/mL] | Measured, Three freeze-thaw cycles [2, 3] [ng/mL] | Compound |
| --- | --- | --- | --- | --- | --- | --- | --- | --- | --- | --- | --- | --- | --- | --- | --- | --- | --- | --- |
| 879 | 43500 | 44900 | 3320 | 4.79 ± 2.28 | 10 ± 2 | 37.32 ± 1.14 | 39.57 ± 2.48 | 39.19 ± 3.16 | 43.49 ± 1.13 | 409.88 ± 38.24 | 419.16 ± 29.59 | 419.25 ± 24.55 | 402.45 ± 17.08 | 6210.06 ± 535.52 | 5954.05 ± 243.71 | 6145.55 ± 285.25 | 6316.77 ± 188.36 | O=C(O)[C@H]1O[C@@H](Oc2cc(O)c3c(=O)cc(-c4ccccc4)oc3c2)[C@H](O)[C@@H](O)[C@@H]1O [Chrysin-7-O-β-D-glucuronide, chrysin-7-O-β-D-glucuronide] |
| 1130 | 2120 | 2230 | 1990 | 3.97 ± 1.37 | 0.22 ± 0.04 | 37.76 ± 3.31 | 39.10 ± 2.32 | 41.95 ± 3.13 | 38.40 ± 1.50 | 393.06 ± 24.72 | 436.20 ± 27.56 | 430.23 ± 11.61 | 392.81 ± 19.18 | 5937.71 ± 352.01 | 6506.73 ± 286.20 | 6564.94 ± 412.78 | 6068.65 ± 216.91 | O=c1cc(-c2ccccc2)oc2cc(O[C@@H]3O[C@H](CO[C@@H]4O[C@H](CO)[C@@H](O)[C@H](O)[C@H]4O)[C@@H](O)[C@H](O)[C@H]3O)c(O)c(O)c12 [Oroxin B, oroxin B] |
| 1300 | 3990 | 4060 | 2890 | 3.42 ± 2.51 | 0.25 | 41.12 ± 0.77 | 39.49 ± 3.13 | 38.81 ± 2.31 | 39.17 ± 2.11 | 385.78 ± 15.57 | 419.46 ± 28.69 | 388.37 ± 19.15 | 395.82 ± 21.75 | 6200.94 ± 362.67 | 6572.01 ± 389.34 | 6516.27 ± 414.24 | 6021.13 ± 378.88 | O=c1cc(-c2ccccc2)oc2cc(O[C@@H]3O[C@H](CO)[C@@H](O)[C@H](O)[C@H]3O)c(O)c(O)c12 [Oroxin A, oroxin A] |
